# Patent publication US20040082550A1, “Tropolone derivative” (priority 2000, published 2004)
# Key:
# [1] = system: promyelocyte leukemia cell strain HL-60; experiment: Test for induction of cell differentiation in HL-60 cells (NBT reduction ability); assay type: cell-based; conditions: for Ratio of cells for which differentiation was induced by each compound alone (%): calculated from NBT reduction ability; for Ratio of cells for which differentiation was induced by each compound in combination with 1 × 10^−7 M of HX630 (%): in combination with 1×10^−7 M HX630 (retinoid synergist)
# Protocol: For each of the compounds of the examples, action for inducing cell differentiation was examined for each alone and in combination with 1×10^−7 M of HX630. According to the methods described in Japanese Patent Unexamined Publication (KOKAI) No. (Sho)61-76440/1986, differentiation of the cells of promyelocyte leukemia cell strain HL-60 into granulocytic series cells was determined based on morphological change and measurement of ability to reduce nitro blue tetrazolium (NBT). The ratios (%) of differentiated cells shown in the following table are those calculated from NBT reduction ability. HX630 is a retinoid synergist that enhances actions of retinoids, and the concentrations of −8, −7 and −6 mean that each compound was added at concentrations of 1×10^−8 M, 1×10^−7 M and 1×10^−6 M, respectively.
# [2] = compound concentration -6 (1×10^−6 M)
# [3] = compound concentration -7 (1×10^−7 M)
# [4] = compound concentration -8 (1×10^−8 M)
Compound,melting point,Ratio of cells for which differentiation was induced by each compound alone (%) ([1]; concentration -6 (1×10^−6 M)),Ratio of cells for which differentiation was induced by each compound alone (%) ([1]; concentration -7 (1×10^−7 M)),Ratio of cells for which differentiation was induced by each compound alone (%) ([1]; concentration -8 (1×10^−8 M)),"Ratio of cells for which differentiation was induced by each compound in combination with 1 × 10^−7 M of HX630 (%) [1, 2]","Ratio of cells for which differentiation was induced by each compound in combination with 1 × 10^−7 M of HX630 (%) [1, 3]","Ratio of cells for which differentiation was induced by each compound in combination with 1 × 10^−7 M of HX630 (%) [1, 4]"
COc1ccc(C(=O)Nc2ccc(O)c(=O)cc2)cc1C12CC3CC(CC(C3)C1)C2 [Tp88],142 °C,46%,1.2%,0.9%,62%,14%,2.6%
CC1(C)CCC(C)(C)c2cc(-c3ccc(O)c(=O)cc3)ccc21 [Tp05],161 °C,13%,0.5%,0.6%,35%,1.2%,1.2%
CN(C(=O)c1ccc2c(c1)C(C)(C)CCC2(C)C)c1ccc(O)c(=O)cc1 [Tp82],,1.4%,1.2%,0.5%,42%,7%,1.9%
CC(C)(C)c1cc(C#Cc2ccc(O)c(=O)cc2)cc(C(C)(C)C)c1 [Tp155],,62.5%,24%,2.7%,78%,89%,68%
Cc1cc2c(cc1Nc1ccc(O)c(=O)cc1)C(C)(C)CCC2(C)C [Tp20],,2.7%,1.8%,2.1%,2.4%,3.7%,4.6%
CC1(C)CCC(C)(C)c2cc(C#Cc3ccc(NN)c(=O)cc3)ccc21 [Tp146],,69%,2.2%,3.6%,83%,91%,66%
O=C(Nc1ccc(O)c(=O)cc1)c1cc(C(F)(F)F)cc(C(F)(F)F)c1 [Tp60],,2.1%,1.3%,0.8%,37.8%,21.2%,2.2%
CC(C)(C)c1cc(N=Nc2ccc(O)c(=O)cc2)cc(C(C)(C)C)c1 [Tp170],,2.3%,0.8%,1.1%,10%,2.3%,0.5%
